Test results from ChEMBL document CHEMBL5291721, “A preclinical secondary pharmacology resource illuminates target-adverse drug reaction associations of marketed drugs” (Nat Commun, 2023).

What was measured:
Acetylcholinesterase = Acetylcholinesterase (Homo sapiens, UniProt P22303); assay type: functional
[1] = molecular target: T1, Muscarinic acetylcholine receptor M2 (Homo sapiens, UniProt P08172)
T1 sequence (P08172 whole entry): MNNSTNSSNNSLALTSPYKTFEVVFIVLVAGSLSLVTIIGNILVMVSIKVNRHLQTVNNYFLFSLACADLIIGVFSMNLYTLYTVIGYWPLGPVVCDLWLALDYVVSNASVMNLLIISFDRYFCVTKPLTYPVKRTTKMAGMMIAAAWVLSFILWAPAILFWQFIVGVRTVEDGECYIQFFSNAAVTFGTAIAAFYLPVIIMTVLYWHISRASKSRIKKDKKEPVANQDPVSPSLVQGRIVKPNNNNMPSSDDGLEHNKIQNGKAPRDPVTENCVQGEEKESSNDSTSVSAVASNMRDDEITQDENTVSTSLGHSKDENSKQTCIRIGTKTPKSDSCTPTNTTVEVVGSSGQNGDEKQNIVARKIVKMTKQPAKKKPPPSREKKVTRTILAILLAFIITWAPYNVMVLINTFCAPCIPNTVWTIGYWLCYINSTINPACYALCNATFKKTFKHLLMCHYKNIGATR

D(1A) dopamine receptor = D(1A) dopamine receptor (Homo sapiens, UniProt P21728)
D(3) dopamine receptor = D(3) dopamine receptor (Homo sapiens, UniProt P35462)
Prothrombin = Prothrombin (Homo sapiens, UniProt P00734); assay type: functional
Histamine H3 receptor = Histamine H3 receptor (Homo sapiens, UniProt Q9Y5N1)
[2] = molecular target: T2, 5-hydroxytryptamine receptor 1A (Homo sapiens, UniProt P08908)
T2 sequence (P08908 whole entry): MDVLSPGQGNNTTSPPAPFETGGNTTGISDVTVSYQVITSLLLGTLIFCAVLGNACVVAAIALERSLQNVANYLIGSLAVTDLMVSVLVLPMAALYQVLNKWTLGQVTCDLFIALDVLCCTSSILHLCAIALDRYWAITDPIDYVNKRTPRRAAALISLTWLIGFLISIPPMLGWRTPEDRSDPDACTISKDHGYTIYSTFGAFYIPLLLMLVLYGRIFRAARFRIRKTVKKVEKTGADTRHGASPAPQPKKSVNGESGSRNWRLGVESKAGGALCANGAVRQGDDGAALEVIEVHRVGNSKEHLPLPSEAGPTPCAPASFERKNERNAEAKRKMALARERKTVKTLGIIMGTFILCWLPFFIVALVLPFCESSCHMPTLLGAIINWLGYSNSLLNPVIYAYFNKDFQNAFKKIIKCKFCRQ

[3] = molecular target: 5-hydroxytryptamine receptor 2B (Homo sapiens, UniProt P41595); assay type: functional, cell-based
[4] = molecular target: Voltage-gated inwardly rectifying potassium channel KCNH2 (Homo sapiens, UniProt Q12809); assay type: functional
[5] = molecular target: T3, Amine oxidase [flavin-containing] A (Homo sapiens, UniProt P21397); assay type: functional
T3 sequence (P21397 whole entry): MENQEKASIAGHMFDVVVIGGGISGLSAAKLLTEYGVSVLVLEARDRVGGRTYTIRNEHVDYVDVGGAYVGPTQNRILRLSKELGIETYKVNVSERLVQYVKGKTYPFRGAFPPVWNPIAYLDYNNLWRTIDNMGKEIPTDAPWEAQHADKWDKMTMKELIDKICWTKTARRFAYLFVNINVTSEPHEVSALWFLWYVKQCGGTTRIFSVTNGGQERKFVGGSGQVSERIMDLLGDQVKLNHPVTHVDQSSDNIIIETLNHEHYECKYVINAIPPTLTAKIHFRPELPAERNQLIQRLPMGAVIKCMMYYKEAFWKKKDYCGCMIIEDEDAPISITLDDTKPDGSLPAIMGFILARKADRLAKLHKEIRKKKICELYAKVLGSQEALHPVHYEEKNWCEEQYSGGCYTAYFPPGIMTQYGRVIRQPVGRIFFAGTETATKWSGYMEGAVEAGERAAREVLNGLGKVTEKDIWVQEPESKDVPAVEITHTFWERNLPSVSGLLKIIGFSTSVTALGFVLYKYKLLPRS

Mu-type opioid receptor = Mu-type opioid receptor (Homo sapiens, UniProt P35372)
[6] = molecular target: Prostaglandin G/H synthase 1 (Homo sapiens, UniProt P23219); assay type: functional
[7] = molecular target: Sodium-dependent noradrenaline transporter (Homo sapiens, UniProt P23975)
[8] = molecular target: Sodium-dependent dopamine transporter (Homo sapiens, UniProt Q01959)
Thromboxane A2 receptor [9] = molecular target: T4, Thromboxane A2 receptor (Homo sapiens, UniProt P21731); assay type: functional, cell-based
T4 sequence (P21731 whole entry): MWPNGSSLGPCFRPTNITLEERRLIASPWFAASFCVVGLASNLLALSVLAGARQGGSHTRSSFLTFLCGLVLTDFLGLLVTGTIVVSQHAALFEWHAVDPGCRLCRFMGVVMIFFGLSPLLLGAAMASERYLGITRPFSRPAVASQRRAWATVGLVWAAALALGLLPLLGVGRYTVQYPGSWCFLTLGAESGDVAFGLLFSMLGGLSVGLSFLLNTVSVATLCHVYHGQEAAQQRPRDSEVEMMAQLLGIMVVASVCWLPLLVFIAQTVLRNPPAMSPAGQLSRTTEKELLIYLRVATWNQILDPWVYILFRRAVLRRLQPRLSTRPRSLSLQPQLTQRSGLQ

Thromboxane A2 receptor [10] = molecular target: T4, Thromboxane A2 receptor; assay type: functional, cell-based; remark: listed apart in the source
Also: assay procedure not described here.

Sequence of Acetylcholinesterase (P22303 whole entry): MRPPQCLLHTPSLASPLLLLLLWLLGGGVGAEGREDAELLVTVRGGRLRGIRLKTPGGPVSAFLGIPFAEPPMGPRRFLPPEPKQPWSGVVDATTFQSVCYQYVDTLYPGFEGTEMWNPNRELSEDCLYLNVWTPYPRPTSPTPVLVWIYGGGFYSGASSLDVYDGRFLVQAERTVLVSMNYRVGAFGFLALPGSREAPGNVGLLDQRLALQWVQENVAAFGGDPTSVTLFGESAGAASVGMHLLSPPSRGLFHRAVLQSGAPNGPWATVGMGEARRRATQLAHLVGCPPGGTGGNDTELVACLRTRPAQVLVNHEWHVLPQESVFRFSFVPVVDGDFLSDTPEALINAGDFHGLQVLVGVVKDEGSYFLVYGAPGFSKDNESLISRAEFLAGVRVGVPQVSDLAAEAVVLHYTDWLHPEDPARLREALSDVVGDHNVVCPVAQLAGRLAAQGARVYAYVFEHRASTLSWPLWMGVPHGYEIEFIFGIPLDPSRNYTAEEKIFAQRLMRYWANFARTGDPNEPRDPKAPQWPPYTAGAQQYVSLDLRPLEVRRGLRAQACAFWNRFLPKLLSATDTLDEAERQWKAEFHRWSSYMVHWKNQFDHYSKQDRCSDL
Sequence of Histamine H3 receptor (Q9Y5N1 whole entry): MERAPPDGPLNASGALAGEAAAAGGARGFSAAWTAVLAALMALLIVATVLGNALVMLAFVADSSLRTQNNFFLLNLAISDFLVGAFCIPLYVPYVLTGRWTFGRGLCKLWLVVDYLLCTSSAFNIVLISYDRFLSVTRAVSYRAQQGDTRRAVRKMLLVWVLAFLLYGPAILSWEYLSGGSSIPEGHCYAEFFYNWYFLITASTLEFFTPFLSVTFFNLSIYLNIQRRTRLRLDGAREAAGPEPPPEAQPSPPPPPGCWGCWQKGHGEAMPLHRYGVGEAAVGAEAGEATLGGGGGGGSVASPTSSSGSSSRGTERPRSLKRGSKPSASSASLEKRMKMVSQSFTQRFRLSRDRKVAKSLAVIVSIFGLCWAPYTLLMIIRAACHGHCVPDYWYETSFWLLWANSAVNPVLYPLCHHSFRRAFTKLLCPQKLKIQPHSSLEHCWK
Sequence of Mu-type opioid receptor (P35372 whole entry): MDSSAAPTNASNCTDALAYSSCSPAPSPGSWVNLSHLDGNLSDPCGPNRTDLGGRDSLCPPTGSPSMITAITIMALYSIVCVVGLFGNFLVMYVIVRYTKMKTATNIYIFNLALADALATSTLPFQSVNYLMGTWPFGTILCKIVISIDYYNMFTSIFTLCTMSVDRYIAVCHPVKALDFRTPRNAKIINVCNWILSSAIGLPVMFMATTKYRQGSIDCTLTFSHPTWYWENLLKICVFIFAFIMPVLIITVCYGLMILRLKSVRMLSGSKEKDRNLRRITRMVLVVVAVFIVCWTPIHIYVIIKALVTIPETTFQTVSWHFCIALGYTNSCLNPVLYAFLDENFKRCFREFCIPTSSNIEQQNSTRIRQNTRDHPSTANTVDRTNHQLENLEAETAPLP
Sequence of Prostaglandin G/H synthase 1 (P23219 whole entry): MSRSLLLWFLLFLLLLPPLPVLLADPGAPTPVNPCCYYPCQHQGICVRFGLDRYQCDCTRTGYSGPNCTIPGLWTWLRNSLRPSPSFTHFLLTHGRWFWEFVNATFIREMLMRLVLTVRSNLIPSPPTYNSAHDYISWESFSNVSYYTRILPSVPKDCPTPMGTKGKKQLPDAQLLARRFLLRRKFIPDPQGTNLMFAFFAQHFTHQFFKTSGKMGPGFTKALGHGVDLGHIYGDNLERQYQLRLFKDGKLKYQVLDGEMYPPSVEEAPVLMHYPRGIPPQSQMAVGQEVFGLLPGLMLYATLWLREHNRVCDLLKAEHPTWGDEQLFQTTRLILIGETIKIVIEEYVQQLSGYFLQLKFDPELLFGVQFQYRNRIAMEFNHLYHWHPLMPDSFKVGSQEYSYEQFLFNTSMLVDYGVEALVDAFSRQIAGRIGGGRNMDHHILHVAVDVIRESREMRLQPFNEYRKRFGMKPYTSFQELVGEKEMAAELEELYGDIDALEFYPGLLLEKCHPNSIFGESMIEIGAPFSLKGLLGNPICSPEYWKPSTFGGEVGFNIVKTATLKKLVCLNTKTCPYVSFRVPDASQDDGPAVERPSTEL
Sequence of Sodium-dependent noradrenaline transporter (P23975 whole entry): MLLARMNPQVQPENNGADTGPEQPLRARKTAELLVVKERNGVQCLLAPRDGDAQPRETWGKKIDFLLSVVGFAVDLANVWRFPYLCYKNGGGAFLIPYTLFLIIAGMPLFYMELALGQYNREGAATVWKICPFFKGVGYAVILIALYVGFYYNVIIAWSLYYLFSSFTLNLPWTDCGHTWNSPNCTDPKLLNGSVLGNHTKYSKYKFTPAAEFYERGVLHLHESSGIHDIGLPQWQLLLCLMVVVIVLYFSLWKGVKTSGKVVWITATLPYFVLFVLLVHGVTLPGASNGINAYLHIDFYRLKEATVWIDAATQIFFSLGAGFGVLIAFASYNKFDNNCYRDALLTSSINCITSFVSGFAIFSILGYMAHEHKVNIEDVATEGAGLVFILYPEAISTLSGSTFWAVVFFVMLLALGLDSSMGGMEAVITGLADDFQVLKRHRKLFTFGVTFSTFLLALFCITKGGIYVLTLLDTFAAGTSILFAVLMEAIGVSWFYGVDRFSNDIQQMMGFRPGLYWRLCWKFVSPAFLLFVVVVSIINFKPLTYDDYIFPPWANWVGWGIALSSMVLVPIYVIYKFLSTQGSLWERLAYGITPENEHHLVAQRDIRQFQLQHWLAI
Sequence of Sodium-dependent dopamine transporter (Q01959 whole entry): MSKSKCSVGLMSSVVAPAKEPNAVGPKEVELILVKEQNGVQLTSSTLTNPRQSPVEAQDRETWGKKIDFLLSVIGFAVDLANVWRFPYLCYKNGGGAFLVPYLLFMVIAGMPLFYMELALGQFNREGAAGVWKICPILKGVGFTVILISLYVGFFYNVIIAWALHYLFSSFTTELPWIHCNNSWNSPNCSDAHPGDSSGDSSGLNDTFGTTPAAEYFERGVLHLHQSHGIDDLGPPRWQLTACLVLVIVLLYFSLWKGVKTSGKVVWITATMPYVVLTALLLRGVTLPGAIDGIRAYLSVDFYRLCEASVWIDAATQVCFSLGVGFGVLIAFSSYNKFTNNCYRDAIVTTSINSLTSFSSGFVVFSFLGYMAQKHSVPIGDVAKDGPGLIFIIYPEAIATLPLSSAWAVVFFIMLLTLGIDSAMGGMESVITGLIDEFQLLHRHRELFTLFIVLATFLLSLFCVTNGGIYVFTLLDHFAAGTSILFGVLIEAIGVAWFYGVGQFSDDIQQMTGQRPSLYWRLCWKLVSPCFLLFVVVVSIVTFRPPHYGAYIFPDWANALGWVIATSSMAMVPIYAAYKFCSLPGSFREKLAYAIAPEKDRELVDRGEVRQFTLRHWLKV
Sequence of Voltage-gated inwardly rectifying potassium channel KCNH2 (Q12809 whole entry): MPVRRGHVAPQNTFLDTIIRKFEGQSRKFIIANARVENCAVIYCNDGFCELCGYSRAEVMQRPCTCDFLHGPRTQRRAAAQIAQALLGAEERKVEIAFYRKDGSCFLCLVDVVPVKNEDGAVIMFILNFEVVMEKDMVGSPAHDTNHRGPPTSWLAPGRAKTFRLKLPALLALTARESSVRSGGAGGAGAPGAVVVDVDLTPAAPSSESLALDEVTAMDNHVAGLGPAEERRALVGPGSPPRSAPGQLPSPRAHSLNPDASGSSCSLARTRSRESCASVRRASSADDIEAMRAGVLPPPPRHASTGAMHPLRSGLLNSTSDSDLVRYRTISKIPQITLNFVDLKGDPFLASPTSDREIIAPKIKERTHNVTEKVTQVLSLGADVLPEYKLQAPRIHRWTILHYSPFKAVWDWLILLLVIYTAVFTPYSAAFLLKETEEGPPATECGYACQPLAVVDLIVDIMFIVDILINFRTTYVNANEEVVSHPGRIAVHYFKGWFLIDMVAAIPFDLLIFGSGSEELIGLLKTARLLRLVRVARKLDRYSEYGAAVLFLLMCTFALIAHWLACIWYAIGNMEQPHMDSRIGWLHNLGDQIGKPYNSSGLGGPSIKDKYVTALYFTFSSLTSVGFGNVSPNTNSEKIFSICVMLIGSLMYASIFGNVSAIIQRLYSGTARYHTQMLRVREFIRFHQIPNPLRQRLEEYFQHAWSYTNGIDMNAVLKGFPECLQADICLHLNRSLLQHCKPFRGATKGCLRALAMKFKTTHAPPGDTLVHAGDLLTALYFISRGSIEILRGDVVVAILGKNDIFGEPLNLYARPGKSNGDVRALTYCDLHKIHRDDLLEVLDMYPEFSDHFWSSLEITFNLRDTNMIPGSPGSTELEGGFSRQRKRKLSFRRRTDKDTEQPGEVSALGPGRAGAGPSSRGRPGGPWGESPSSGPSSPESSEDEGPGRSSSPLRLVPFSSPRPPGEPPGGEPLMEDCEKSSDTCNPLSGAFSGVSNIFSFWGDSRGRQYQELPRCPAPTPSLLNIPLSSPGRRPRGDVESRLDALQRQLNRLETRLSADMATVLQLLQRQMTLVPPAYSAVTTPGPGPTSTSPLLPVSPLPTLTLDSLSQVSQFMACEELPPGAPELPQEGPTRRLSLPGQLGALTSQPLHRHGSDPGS
Sequence of D(1A) dopamine receptor (P21728 whole entry): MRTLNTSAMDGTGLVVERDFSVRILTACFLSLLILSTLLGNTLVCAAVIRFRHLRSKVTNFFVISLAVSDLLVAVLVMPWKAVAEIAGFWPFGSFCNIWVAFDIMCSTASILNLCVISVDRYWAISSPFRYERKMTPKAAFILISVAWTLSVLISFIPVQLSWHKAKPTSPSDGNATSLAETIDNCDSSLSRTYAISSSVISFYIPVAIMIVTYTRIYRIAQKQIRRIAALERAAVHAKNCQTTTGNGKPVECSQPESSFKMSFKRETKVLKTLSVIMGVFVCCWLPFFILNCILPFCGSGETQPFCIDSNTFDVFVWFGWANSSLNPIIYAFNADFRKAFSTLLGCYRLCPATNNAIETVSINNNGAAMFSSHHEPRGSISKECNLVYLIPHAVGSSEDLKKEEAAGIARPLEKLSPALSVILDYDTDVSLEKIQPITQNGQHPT

Row | Structure (SMILES) | AC50 (Acetylcholinesterase) [µM] | AC50 [1] [µM] | AC50 (D(1A) dopamine receptor) [µM] | AC50 (D(3) dopamine receptor) [µM] | AC50 (Prothrombin) [µM] | AC50 (Histamine H3 receptor) [µM] | AC50 [2] [µM] | AC50 [3] [µM] | AC50 [4] [µM] | AC50 [5] [µM] | AC50 (Mu-type opioid receptor) [µM] | AC50 [6] [µM] | AC50 [7] [µM] | AC50 [8] [µM] | AC50 (Thromboxane A2 receptor [9]) [µM] | AC50 (Thromboxane A2 receptor [10]) [µM]
1 | C/C=C/C/C=C/CCC(=O)[C@H]1O[C@H]1C(N)=O [CERULENIN] | > 30 | > 30 | > 30 | > 30 | > 30 | > 30 | > 30 | > 30 | > 30 | > 30 | > 30 | 15.5 | > 30 | > 30 | > 30 | > 30
2 | CN(C)[C@@H]1C(O)=C(C(N)=O)C(=O)[C@@]2(O)C(O)=C3C(=O)c4c(O)ccc(Cl)c4[C@@](C)(O)[C@H]3C[C@@H]12 [CHLORTETRACYCLINE] | > 30 | > 30 | > 30 | > 30 | > 30 | > 30 | > 30 | > 30 | > 30 | > 30 | > 30 | > 30 | > 30 | > 30 | > 30 | > 30
3 | C[C@H]1O[C@@H](n2cc(F)c(=O)[nH]c2=O)[C@H](O)[C@@H]1O [DOXIFLURIDINE] | > 30 | > 30 | > 30 | > 30 | > 30 | > 30 | > 30 | > 30 | > 30 | > 30 | > 30 | > 30 | > 30 | > 30 | > 30 | > 30
4 | C#C[C@]1(O)CC[C@H]2[C@@H]3CCC4=CC(=O)CC[C@@H]4[C@H]3C(=C)C[C@@]21CC [ETONOGESTREL] | > 30 | > 30 | > 30 | > 30 | > 30 | > 30 | > 30 | > 30 | > 30 | > 30 | 10.5 | > 30 | > 30 | > 30 | > 30 | > 30
5 | CC[C@H](c1ccc(O)cc1)[C@@H](CC)c1ccc(O)cc1 [HEXESTROL] | > 30 | 18.7 | 15.5 | 17.5 | > 30 | > 30 | > 30 | > 30 | > 30 | > 30 | 15 | 16.4 | 8.77 | 3.31 | 21 | > 3
6 | O=C1/C(=C2\Nc3ccc(S(=O)(=O)O)cc3C2=O)Nc2ccc(S(=O)(=O)O)cc21 [INDIGOTINDISULFONATE] | > 30 | > 30 | > 30 | > 30 | 2.83 | > 30 | > 30 | > 30 | > 30 | > 30 | > 30 | > 30 | > 30 | > 30 | > 30 | > 30
7 | CC(CCc1ccccc1)NCC(O)c1ccc(O)c(C(N)=O)c1 (stereo not drawn) [LABETALOL] | > 30 | > 30 | > 30 | 5.85 | > 30 | > 30 | 0.104 | > 30 | > 30 | > 30 | 2.42 | > 30 | 4.04 | 2.22 | > 30 | > 30
8 | C=CCN1CC[C@]23CCCC[C@H]2[C@H]1Cc1ccc(O)cc13 [LEVALLORPHAN] | 16.7 | 8.91 | > 30 | 23.4 | > 30 | > 30 | 27.6 | > 30 | 14 | > 30 | 0.003 | 8.54 | > 30 | > 30 | > 30 | > 30
